Data published in patent US12509437B2, “Substituted thiophene carboxamides and derivatives thereof as microbicides” (Bayer Aktiengesellschaft, priority 2019, dated 2025).
Marks after values point to notes of the source that are not given here.

Key:
[1] = system: Colletotrichum lindemuthianum; test: In vivo preventive test on Colletotrichum lindemuthianum (Anthracnose on bean); conditions: sprayed 72 hours before inoculation, evaluated 6 days after inoculation; for pest or weed control at 125 ppm / pest or weed control at 500 ppm: Colletotrichum lindemuthianum, 144 h, read-out: efficacy; for pest or weed control at 500 ppm: 500 ppm of active ingredient
In short: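 Young bean plants were sprayed with compound in acetone/DMSO/Tween diluted in water, then inoculated 72 h later with C. lindemuthianum spores. Incubation was 24 h at 20 °C/100% RH, then 5 days at 20 °C/90% RH. Efficacy scored 6 days post-inoculation: 0% equals solvent-treated control, 100% means no disease.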

Uromyces appendiculatus = test: In vivo preventive test on Uromyces appendiculatus (bean rust); conditions: 240 h, sprayed 72 hours before inoculation, evaluated 10 days after inoculation, read-out: efficacy; for pest or weed control at 125 ppm: 125 ppm of active ingredient; for pest or weed control at 31 ppm: 31 ppm of active ingredient; for pest or weed control at 500 ppm: 500 ppm of active ingredient
In short: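 Young bean plants sprayed with compound in acetone/DMSO/Tween diluted in water, then inoculated 72 h later with spore suspension. Incubated 24 h at 20° C., 100% RH, then 9 days at 20° C., 70-80% RH. Efficacy scored 10 days post-inoculation, 0% = untreated-control level, 100% = no disease.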

[2] = system: Xanthomonas campestris pv. campestris; test: In vivo preventive test on Xanthomonas campestris pv. campestris (black rot on cabbage); conditions: sprayed 72 hours before inoculation, evaluated 8 or 10 days after inoculation; for pest or weed control at 31 ppm / pest or weed control at 500 ppm / pest or weed control at 125 ppm: Xanthomonas campestris, read-out: efficacy; for pest or weed control at 500 ppm: 500 ppm of active ingredient; for pest or weed control at 125 ppm: 125 ppm of active ingredient
In short: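 Young cabbage plants sprayed preventively with compound formulated in acetone/DMSO/Tween and diluted in water, then inoculated 72 h later with a bacterial spray. Kept at 27° C, 95% relative humidity; disease scored after 8 or 10 days as % efficacy versus solvent-treated controls (0% = control, 100% = no disease).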

[3] = system: Pseudomonas syringae pv. tomato; test: In vivo preventive test on Pseudomonas syringae pv. tomato (bacterial speck on tomato); conditions: sprayed 72 hours before inoculation, evaluated 5 or 6 days after inoculation, read-out: efficacy; for pest or weed control at 125 ppm: 125 ppm of active ingredient; for pest or weed control at 500 ppm: 500 ppm of active ingredient
Method: The tested active ingredients were prepared by homogenization in a mixture of acetone/Dimethyl sulfoxide/Tween®, and then diluted with water to obtain the desired active material concentration.
The young plants of tomato were treated by spraying the active ingredient prepared as described above. Control plants were treated only with an aqueous solution of acetone/Dimethyl sulfoxide/Tween®.
After 72 hours, the plants were contaminated by spraying the leaves with an aqueous bacteria suspension of Pseudomonas syringae pv. tomato. The contaminated tomato plants were incubated for 4 days in saturated atmosphere at 22° C. day/20° C. night−70% HR and then for 1 or 2 days at 22° C. day/20° C. night at 70-80% relative humidity.
The test was evaluated 5 or 6 days after the inoculation. 0% means an efficacy which corresponds to that of the control plants while an efficacy of 100% means that no disease was observed.

Peronospora parasitica = test: In vivo preventive test on Peronospora parasitica (Crucifer downy mildew) on cabbage; conditions: Hyaloperonospora parasitica, 120 h, sprayed 72 hours before inoculation, evaluated 5 days after inoculation, read-out: efficacy; for pest or weed control at 31 ppm: 31 ppm of active ingredient; for pest or weed control at 125 ppm: 125 ppm of active ingredient; for pest or weed control at 500 ppm: 500 ppm of active ingredient
In short: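 Preventive protocol: spore inoculation followed compound spraying by 72 h, with 5 days' incubation at 20 °C and 100% relative humidity. Disease was rated 5 days after inoculation against solvent-only plants (0% = control level, 100% = disease-free).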

[4] = system: Colletotrichum lindemuthianum; test: Colletotrichum lindemuthianum in vitro cell test; type: cell-based; conditions: 144 h, 6 days incubation, read-out: efficacy (inhibition of fungal growth; no direct activity); for inhibition at 5 ppm: 5 ppm of active ingredient; for inhibition at 20 ppm: 20 ppm of active ingredient
In short: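 Inhibition of spore germination and mycelial growth in liquid culture, read spectrometrically after 6 days incubation. Compounds added from DMSO (final ≤1%) to spores in glucose/peptone/yeast-extract medium; absorbance compared with untreated controls.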

[5] = system: Pseudomonas syringae pv. tomato; test: Pseudomonas syringae pv. tomato in vitro cell test; type: cell-based; conditions: 20 ppm of active ingredient, 24 h of incubation, read-out: efficacy (inhibition of bacteria growth; no direct activity)
In short: (§1)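 Bacteria from liquid pre-culture diluted to set OD in LB broth and exposed to compounds dissolved in DMSO (final ≤1%). After 24 h, growth read by absorbance; inhibition derived relative to compound-free control wells.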

[6] = LogP by HPLC on reversed phase columns (EEC directive 79/831 Annex V.A8); type: physicochemical; conditions: reversed phase HPLC columns; method [a]
In short: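 LogP derived from retention time, interpolated linearly between bracketing alkan-2-one standards (3 to 16 carbons). Where several values exist for one method, all are listed with "+"; UV spectra 200–400 nm at peak maxima gave lambda-max.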

[7] = system: salicylate responsive promoter sequence of the PR1 (pathogenesis-related protein I) gene (AT2G14610); test: Induction of defense gene expression in Arabidopsis thaliana (PR1 promoter-GFP reporter plants); type: in vivo; conditions: 72 h, 3rd day after spraying, mock treated leaves set as 1.00, read-out: relative fluorescence value
In short: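 Transgenic A. thaliana carrying GFP under the salicylate-responsive PR1 promoter, grown five days, then sprayed with compounds. Whole-plant fluorescence imaged and quantified on day 3 post-spray, expressed relative to mock-treated leaf background set at 1.00.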

[8] = system: Xanthomonas campestris pv. campestris; test: Xanthomonas campestris pv. campestris in vitro cell test; type: cell-based; conditions: 24 h of incubation, read-out: efficacy (inhibition of bacteria growth; no direct activity); for inhibition at 5 ppm: 5 ppm of active ingredient; for inhibition at 20 ppm: 20 ppm of active ingredient
In short: as §1

Alternaria alternata = Alternaria alternata in vitro cell test; type: cell-based; conditions: 120 h, 5 days incubation, read-out: efficacy (inhibition of fungal growth; no direct activity); for inhibition at 5 ppm: 5 ppm of active ingredient; for inhibition at 20 ppm: 20 ppm of active ingredient
In short: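 A. alternata spores in glucose/peptone/yeast-extract liquid medium were exposed to DMSO-solubilized compound (final DMSO ≤1%). After 5 days incubation, mycelium growth read spectrometrically; inhibition derived from absorbance relative to fungicide-free control wells.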

| SMILES | pest or weed control at 125 ppm ([1]; 125 ppm of active ingredient) [%] | pest or weed control at 125 ppm (Uromyces appendiculatus) [%] | pest or weed control at 31 ppm ([2]; 31 ppm of active ingredient) [%] | pest or weed control at 500 ppm [2] [%] | pest or weed control at 31 ppm (Uromyces appendiculatus) [%] | pest or weed control at 31 ppm (Peronospora parasitica) [%] | pest or weed control at 500 ppm [1] [%] | pest or weed control at 500 ppm (Uromyces appendiculatus) [%] | pest or weed control at 125 ppm (Peronospora parasitica) [%] | pest or weed control at 500 ppm [3] [%] | inhibition at 5 ppm [4] [%] | inhibition at 20 ppm [5] [%] | chromatographic logP [6] | fold induction at 300 ppm [7] | inhibition at 5 ppm [8] [%] | inhibition at 20 ppm [8] [%] | inhibition at 5 ppm (Alternaria alternata) [%] | pest or weed control at 500 ppm (Peronospora parasitica) [%] | fold induction at 75 ppm [7] | inhibition at 20 ppm (Alternaria alternata) [%] | further results |
| --- | --- | --- | --- | --- | --- | --- | --- | --- | --- | --- | --- | --- | --- | --- | --- | --- | --- | --- | --- | --- | --- |
| O=C(NC(C(=O)O)C1CC1)c1cc(Cl)c(Cl)s1 (stereo not shown) [CMP9, reference compound] | 30 | < 40 | < 20 | 0 | – | – | – | – | – | – | – | – | – | – | – | – | – | – | – | – | efficacy ([1]; 125 ppm of active ingredient): 30* %; pest or weed control at 125 ppm [3]: 34% |
| COC(=O)C(NC(=O)c1cc(Br)c(Br)s1)C1CC1 (stereo not shown) [CMP10, reference compound] | – | – | < 30 | – | 0 | < 30 | – | – | – | – | – | – | – | – | – | – | – | – | – | – | pest or weed control at 125 ppm [3]: < 40% |
| CCOC(=O)C1(NC(=O)c2cc(Br)c(Br)s2)CC1 [CMP2, reference compound] | 0 | – | 0 | 0 | < 40 | – | 0 | < 30 | < 30 | < 40 | – | – | – | – | – | – | – | – | – | – | – |
| COC(=O)[C@H](CCCNC(=N)N)NC(=O)c1sc(Cl)c(Cl)c1C [I.079] | – | – | 70 to 79 | – | – | 80 to 89 | – | 80 to 89 | 90 to 100 | 70 to 79 | ≤ 30 | ≤ 30 | 1.68 | > 2 | ≤ 30 | ≤ 30 | ≤ 30 | 90 to 100 | – | – | inhibition at 20 ppm [4]: ≤ 30% |
| CCOC(=O)C(CO)NC(=O)c1sc(Cl)c(Cl)c1C (stereo not shown) [I.039] | – | – | 70 to 79 | – | – | 90 to 100 | 90 to 100 | 80 to 89 | 90 to 100 | – | ≤ 30 | ≤ 30 | 2.48 | > 2 | ≤ 30 | ≤ 30 | ≤ 30 | 90 to 100 | > 2 | ≤ 30 | inhibition at 20 ppm [4]: ≤ 30%; pest or weed control at 125 ppm [2]: 70 to 79% |
| O=C(NC1(C(=O)O)CC1)c1cc(Br)c(Br)s1 [CMP1, reference compound] | – | – | 10 | 0 | – | – | – | – | – | 0 | – | – | – | – | – | – | – | – | – | – | efficacy ([2]; 31 ppm of active ingredient): 10* % |
| COC(=O)CC[C@H](NC(=O)c1cc(Cl)c(Cl)s1)C(=O)OC [CMP12, reference compound] | < 20 | – | – | – | – | – | – | – | – | – | – | – | – | – | – | – | – | – | – | – | pest or weed control at 31 ppm ([3]; 31 ppm of active ingredient): 10% |
| CCSC(=O)C1(NC(=O)c2sc(Br)c(Br)c2C)CC1 [I.128] | – | – | – | – | – | – | – | 90 to 100 | 90 to 100 | 70 to 79 | – | – | 3.81 | > 2 | – | – | – | 90 to 100 | > 2 | – | – |
| Cc1c(C(=O)NC2(C(=O)O)CCC2)sc(Br)c1Br [I.137] | – | 90 to 100 | – | 90 to 100 | – | 70 to 79 | 90 to 100 | 90 to 100 | 90 to 100 | 70 to 79 | – | – | 2.63 | > 2 | – | – | – | 90 to 100 | > 2 | – | pest or weed control at 125 ppm [2]: 90 to 100% |
| Cc1c(C(=O)NC2(C(=O)O)CCC2)sc(Cl)c1Cl [I.175] | 70 to 79 | 70 to 79 | 70 to 79 | – | – | 90 to 100 | – | – | 90 to 100 | – | ≤ 30 | ≤ 30 | 2.62 | > 2 | ≤ 30 | ≤ 30 | ≤ 30 | – | > 2 | ≤ 30 | inhibition at 20 ppm [4]: ≤ 30%; pest or weed control at 125 ppm [2]: 80 to 89% |
| COC(=O)C(C)(C)NC(=O)c1sc(Cl)c(Cl)c1C [I.176] | – | 90 to 100 | – | – | 90 to 100 | 70 to 79 | – | – | 90 to 100 | – | ≤ 30 | ≤ 30 | 3.16 | > 2 | ≤ 30 | ≤ 30 | ≤ 30 | – | > 2 | ≤ 30 | pest or weed control at 125 ppm [3]: 70 to 79% |
| CCOC(=O)C(CO)NC(=O)c1sc(Br)c(Br)c1C (stereo not shown) [I.006] | – | 80 to 89 | – | 80 to 89 | 90 to 100 | 80 to 89 | 70 to 79 | 90 to 100 | 90 to 100 | – | ≤ 30 | ≤ 30 | 2.58 | > 2 | ≤ 30 | ≤ 30 | ≤ 30 | 90 to 100 | > 2 | ≤ 30 | – |
